Article PMC9323625, “Structure–Function Insights into the Fungal Endo-Chitinase Chit33 Depict its Mechanism on Chitinous Material” (International Journal of Molecular Sciences, 2022)

Target: T1, Chit33 (Trichoderma harzianum, UniProt Q12713, D165A/E167A)
T1 construct: gene chit33 (909 bp, 321 amino acids) expressed in Pichia pastoris GS115 from CHIT33-pIB4, secreted to the extracellular fraction; 33 kDa
T1 sequence (Q12713 20-321 D165A/E167A): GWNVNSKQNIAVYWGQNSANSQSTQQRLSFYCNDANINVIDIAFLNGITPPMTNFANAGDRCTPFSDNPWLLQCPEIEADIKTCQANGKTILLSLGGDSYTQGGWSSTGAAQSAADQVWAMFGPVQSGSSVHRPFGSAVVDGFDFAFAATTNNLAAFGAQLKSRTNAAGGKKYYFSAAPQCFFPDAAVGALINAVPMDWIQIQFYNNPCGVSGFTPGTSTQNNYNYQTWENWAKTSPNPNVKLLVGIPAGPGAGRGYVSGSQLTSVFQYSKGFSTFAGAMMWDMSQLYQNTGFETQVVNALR
Experiment: X-ray crystal structure, […] Å
Assay type: binding
Details: crystal soaked with 18 mM NAG4 for 30 min; active site, subsites −2 to +2; inactivated double mutant

CC(=O)N[C@H]1[C@H](O[C@H]2[C@H](O)[C@@H](NC(C)=O)C(O)O[C@@H]2CO)O[C@H](CO)[C@@H](O[C@@H]2O[C@H](CO)[C@@H](O[C@@H]3O[C@H](CO)[C@@H](O)[C@H](O)[C@H]3NC(C)=O)[C@H](O)[C@H]2NC(C)=O)[C@@H]1O (stereo partly shown) [NAG4, N,N’,N’’,N’’’-acetyl chitotetraose]
X-ray crystal structure, 1.60 Å: we determined the crystal structure of the inactive double-mutant D165A/E167A with the substrate NAG4
